Each structure is given as a SMILES string. Activity calls are given as the source filed them.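 The calls were made as follows: active = parasite count per well reduced by over 3 SD from the mean, with host cell number above 80% of untreated; inactive = the rest.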

In this test the test system is L. donovani amastigotes in THP-1 macrophages, DAPI imaging, 72 h. Nature of the test: L. donovani intracellular amastigote growth inhibitors, imaging, THP-1 host macrophages, single concentration (AID 977614).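 Also: signal is the parasite per host cell ratio from DAPI stained kinetoplasts and nuclei.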
As to `CC(=O)N1[C@H](CO)[C@@H](c2ccccc2)[C@@H]1CNC(=O)CN1CCOCC1`, the AC50 is > 10 µM (inactive).
As for `CC(=O)N1[C@H](CNC(=O)C2CC2)[C@@H](c2ccc(-c3ccccc3)cc2)[C@@H]1CO`, the figure is > 10 µM (inactive); as for `O=C(Nc1ccc(F)cc1)N1C[C@H]2[C@@H](c3ccccc31)[C@H](CO)N2Cc1ccccc1Cl`, > 10 µM (inactive).
As to `COCCNC[C@H]1[C@H](c2ccccc2)[C@H](CO)N1c1nc(C)c(C)s1`, the AC50 is > 10 µM (inactive).
Turning to `COCC(=O)N1C[C@H]2[C@@H](c3ccccc31)[C@H](CO)N2C(=O)c1ccccc1F`, the AC50 is > 10 µM (inactive).
With `C/C=C/c1ccc([C@@H]2[C@@H](CN(CC)C(C)=O)N(Cc3cccnc3)[C@H]2CO)cc1`, the AC50 was > 10 µM (inactive).
With `O=C(C1CCOCC1)N1C[C@H]2[C@@H](c3ccccc31)[C@H](CO)N2C(=O)Nc1ccccc1F`, the AC50 is > 10 µM (inactive).
Regarding `CCC(=O)N1[C@H](CN(CC)C(=O)c2cccc(F)c2)[C@H](c2ccccc2)[C@@H]1CO`, the AC50 was > 10 µM (inactive).
`O=C(NC[C@@H]1[C@@H](c2ccccc2)[C@@H](CO)N1C(=O)C1CCC1)NC1CCCC1`: the AC50 is > 10 µM (inactive).
In the case of `CC(C)NC(=O)N1[C@@H]2CN(C)c3ccccc3[C@@H]2[C@@H]1CO`, the AC50 was > 10 µM (inactive).
With `C[C@@H]1CN([C@@H](C)CO)C(=O)CCCn2nncc2CO[C@@H]1CN(C)C(=O)Nc1ccc2c(c1)OCCO2`, the AC50 is > 10 µM (inactive).
`C[C@@H]1CN([C@H](C)CO)C(=O)CCCn2nncc2CO[C@H]1CN(C)C(=O)Nc1ccc(-c2cccs2)cc1`: the AC50 is > 10 µM (inactive).
As for `Cc1noc(C)c1S(=O)(=O)N(C)C[C@H]1OCc2cnnn2CCCC(=O)N([C@H](C)CO)C[C@H]1C`, the figure is > 10 µM (inactive); as for `C/C=C/c1ccc([C@@H]2[C@@H](CO)N(C(C)=O)[C@H]2CNC(=O)c2ccccc2)cc1`, > 10 µM (inactive).
Next, `Cc1noc(C)c1NC(=O)N(C)C[C@H]1OCc2cnnn2CCCC(=O)N([C@@H](C)CO)C[C@@H]1C`: > 10 µM (inactive); `O=C(NC[C@@H]1N[C@@H](CO)[C@@H]1c1ccc(-c2ccccc2F)cc1)c1ccccn1`: > 10 µM (inactive); `CN1[C@@H]2CN(C(=O)C3CCCCC3)c3ccccc3[C@@H]2[C@@H]1CO`: > 10 µM (inactive).
In the case of `COCC(=O)NC[C@H]1[C@H](c2ccccc2)[C@@H](CO)N1C(=O)c1ccccc1`, the AC50 is > 10 µM (inactive).
For `C[C@@H]1CN([C@H](C)CO)C(=O)CCCn2nncc2CO[C@H]1CN(C)C(=O)Nc1ccnc(N2CCOCC2)c1`, the AC50 is > 10 µM (inactive).
In the case of `C[C@H]1CN([C@@H](C)CO)C(=O)CCCn2nncc2CO[C@H]1CN(C)C(=O)Nc1ccc2c(c1)OCCO2`, the AC50 was > 10 µM (inactive).
Next, `CCN(C[C@H]1[C@@H](c2ccccc2)[C@H](CO)N1CC1CC1)C(=O)c1ccccn1`: > 10 µM (inactive); `CCN(C[C@@H]1[C@@H](c2ccccc2)[C@@H](CO)N1CC1CC1)C(=O)c1ccccn1`: > 10 µM (inactive).
On to `C[C@H](CO)N1C[C@H](C)[C@@H](CN(C)Cc2ccccc2C(=O)O)OCc2cnnn2CCCC1=O`, for which the AC50 was > 10 µM (inactive).
With `COc1cccc(C(=O)N2C[C@H]3[C@@H](c4ccccc42)[C@@H](CO)N3C(=O)c2cccc(F)c2)c1`, the AC50 is > 10 µM (inactive).
For `O=C(Cc1ccccn1)N1[C@@H]2CNc3ccccc3[C@@H]2[C@@H]1CO`, the AC50 is > 10 µM (inactive).
As to `C[C@H](CO)N1C[C@H](C)[C@H](CN(C)C(=O)Nc2ccc3c(c2)OCO3)OCc2cn(nn2)CCCC1=O`, the AC50 is > 10 µM (inactive).
In the case of `C[C@H](CO)N1C[C@H](C)[C@@H](CN(C)C(=O)Oc2cccc3ccccc23)OCc2cnnn2CCCC1=O`, the AC50 was > 10 µM (inactive).
As to `C[C@H](CO)N1C[C@H](C)[C@@H](CN(C)C(=O)Nc2cccc3ccccc23)OCc2cn(nn2)CCCC1=O`, the AC50 is > 10 µM (inactive).
Next, `COc1ccc(NC(=O)N(C)C[C@@H]2OCc3cnnn3CCCC(=O)N([C@@H](C)CO)C[C@@H]2C)c(OC)c1`: > 10 µM (inactive).
Consider `CC(=O)N1[C@H](CN(C)S(=O)(=O)c2ccccc2)[C@H](c2ccccc2)[C@@H]1CO`, for which the AC50 was > 10 µM (inactive).
In the case of `O=C(Cc1ccccc1)N1C[C@@H]2[C@H](c3ccccc31)[C@@H](CO)N2S(=O)(=O)c1ccccc1`, the AC50 was > 10 µM (inactive).
Next, `CCC(=O)NC[C@H]1[C@@H](c2ccc(-c3ccc(F)cc3)cc2)[C@@H](CO)N1C(=O)CC`: > 10 µM (inactive); `C[C@@H]1CN([C@@H](C)CO)C(=O)CCCn2cc(nn2)CO[C@H]1CN(C)C(=O)Nc1ccc2c(c1)OCO2`: > 10 µM (inactive).
On to `COc1ccccc1S(=O)(=O)N(C)C[C@H]1OCc2cn(nn2)CCCC(=O)N([C@H](C)CO)C[C@H]1C`, for which the AC50 was > 10 µM (inactive).
As for `OC[C@@H]1[C@@H]2c3ccccc3NC[C@@H]2N1Cc1ccccc1Cl`, the figure is > 10 µM (inactive).
Turning to `CCC(=O)N1[C@H](CO)[C@H](c2ccc(C3=CCCC3)cc2)[C@@H]1CNC1CCCCC1`, the AC50 was > 10 µM (inactive).
Turning to `CCC(=O)N1[C@H](CO)[C@H](c2ccc(C#CC(C)(C)O)cc2)[C@@H]1CN(C)C(C)=O`, the AC50 was > 10 µM (inactive).
As for `CCN(C[C@H]1[C@H](c2ccccc2)[C@H](CO)N1C(=O)COC)S(C)(=O)=O`, the figure is > 10 µM (inactive); as for `CCN(C[C@@H]1[C@@H](c2ccccc2)[C@H](CO)N1S(C)(=O)=O)C(=O)C1CCCC1`, > 10 µM (inactive).
Regarding `O=C(CC(F)(F)F)N1C[C@H]2[C@@H](c3ccccc31)[C@@H](CO)N2C(=O)C1CCCCC1`, the AC50 is > 10 µM (inactive).
Consider `CN1C[C@H]2[C@@H](c3ccccc31)[C@H](CO)N2S(=O)(=O)c1ccccc1`, for which the AC50 was > 10 µM (inactive).
As for `CCN(C[C@H]1[C@@H](c2ccccc2)[C@H](CO)N1C(=O)COC)S(C)(=O)=O`, the AC50 was > 10 µM (inactive).
As for `CC(=O)N1[C@H](CO)[C@@H](c2ccccc2)[C@H]1CN(C)S(=O)(=O)c1ccccc1`, the figure is > 10 µM (inactive).
`O=C(C1CCCCC1)N1[C@@H]2CN(S(=O)(=O)c3ccccc3)c3ccccc3[C@@H]2[C@@H]1CO`: the AC50 was > 10 µM (inactive).
With `O=S(=O)(c1ccccc1)N1C[C@@H]2[C@H](c3ccccc31)[C@H](CO)N2Cc1ccccn1`, the AC50 is > 10 µM (inactive).
With `C[C@H]1CN([C@@H](C)CO)C(=O)CCCn2nncc2CO[C@@H]1CN(C)Cc1cccc(C(F)(F)F)c1`, the AC50 was > 10 µM (inactive).
Turning to `C[C@@H]1CN([C@H](C)CO)C(=O)CCCn2cc(nn2)CO[C@H]1CN(C)Cc1ccccc1`, the AC50 is > 10 µM (inactive).
Take `CCCNC(=O)N1C[C@@H]2[C@H](c3ccccc31)[C@H](CO)N2C(=O)Nc1ccccc1F`: the AC50 was > 10 µM (inactive).
On to `CNC[C@@H]1OCc2cn(nn2)CCCC(=O)N([C@H](C)CO)C[C@H]1C`, for which the AC50 was > 10 µM (inactive).
Regarding `O=C(C1CCCCC1)N1[C@H](CO)[C@H]2c3ccccc3NC[C@H]21`, the AC50 was > 10 µM (inactive).

A word on the AC50: it is the concentration at which the activity in the assay is half-maximal.

(Values after PubChem BioAssay AID977614 (Broad Institute, 2014).)
